Assay results reported in PubChem BioAssay AID624041 (The Scripps Research Institute Molecular Screening Center, 2012).
Activity calls are given as the source filed them. No rule for the calls is given here.

How the values were obtained:
[1] = biological target: Monoacylglycerol lipase ABHD6 (Mus musculus) (UniProt Q8R2Y0); test: mouse liver ABHD6 target engagement – competitive gel-based ABPP, fluorescence, in vivo study for DAGLb inhibitor project, late-stage follow-up (AID 624041); conditions: in vivo dosing
Monoacylglycerol lipase ABHD6 (Mus musculus), sequence (Q8R2Y0 whole entry, looked up): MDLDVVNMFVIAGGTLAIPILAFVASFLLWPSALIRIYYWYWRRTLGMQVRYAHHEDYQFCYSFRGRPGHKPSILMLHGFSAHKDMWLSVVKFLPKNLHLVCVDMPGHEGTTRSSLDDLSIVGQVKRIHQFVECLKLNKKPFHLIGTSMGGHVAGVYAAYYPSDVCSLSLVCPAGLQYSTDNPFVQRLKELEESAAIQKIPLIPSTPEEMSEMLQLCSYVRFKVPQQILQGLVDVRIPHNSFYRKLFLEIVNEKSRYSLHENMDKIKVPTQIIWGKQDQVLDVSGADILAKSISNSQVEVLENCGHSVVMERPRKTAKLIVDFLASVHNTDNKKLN

[2] = as above; conditions: in vivo dosing, anti-target, probe FP-Rh, stronger effect = higher value

COc1ccc(-c2ccc(-c3cn(C(=O)N4CCCCC4c4ccccc4)nn3)cc2)cc1 (stereo not drawn)
inhibition ([1]; probe FP-Rh, stronger effect = higher value, dose or concentration not given here): 95% | inhibition ([1]; probe FP-Rh, inhibition at 5 mg/kg, stronger effect = higher value): 98% | inhibition ([1]; probe HT-01, stronger effect = higher value, dose or concentration not given here): 90% | inhibition ([1]; probe HT-01, inhibition at 5 mg/kg, stronger effect = higher value): 90% | inhibition ([2]; 65 kDa SH, dose or concentration not given here): 70% (inactive) | inhibition ([2]; 65 kDa SH, inhibition at 5 mg/kg): 5% | inhibition ([2]; 72 kDa SH, dose or concentration not given here): 80% (inactive) | inhibition ([2]; 72 kDa SH, inhibition at 5 mg/kg): 20%
